{
  "source": "patent US20250213606A1",
  "about": "“MEDICINAL AGENT (EMBODIMENTS) AND DEVICE FOR USING SAME” (priority 2022, published 2025)",
  "key": {"[1]": {"system": "laboratory animals and volunteer testers", "experiment": "Effective concentration ranges of the components of the mixture", "format": "in vivo"}, "[2]": {"settings": "governs risk of condensation in cold conditions; cited from earlier work"}},
  "data": [
    {"smiles": "[Ar]", "note": "[argon]", "values": [
      {"measurement": "range of efficiency with the greatest effect, concentration in a mixture with oxygen", "setting": "[1]; laboratory animals, volunteer testers and foreign sources", "value": "30-70 % by volume"}
    ]},
    {"smiles": "[He]", "note": "[helium]", "values": [
      {"measurement": "effective content providing antihypothermic and antihypoxic effects", "setting": "[1]; in a mixture with oxygen from 21, argon at least 25 % by volume, xenon and krypton, mixture temperature 30 to 70° C.", "value": "at least 40 % by volume"}
    ]},
    {"smiles": "[Kr]", "note": "[krypton]", "values": [
      {"measurement": "critical temperature", "setting": "[2]", "value": 209.35, "unit": "K"}
    ]}
  ]
}
